Source: the supplement of paper PMC10883282
± gives the standard deviation of the averaged measurements.

Test system: VA-ES-BJ
Assay: relative viability vs DMSO control (72 h) (fraction); higher = more viable cells
Method in brief: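 Sarcoma cell lines were seeded in 384-well plates at densities set to reach 80–90% confluence. After 24 h, 2.5 µl of serially diluted compound was added (source plates 10 mM to 0.0002 mM), and plates were held 72 h at 37 °C, 5% CO2, with 0.1% DMSO vehicle and a 5 µM positive control. Relative viability came from ATPLite readings as percent growth, averaged over up to triplicate wells. Data were rescaled so full viability equals 1 and none equals 0.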

`COc1cc2c(cc1O)CCN[C@]21CS[C@@H]2c3c(OC(C)=O)c(C)c4c(c3[C@H](COC1=O)N1[C@@H]2[C@H]2c3c(cc(C)c(OC)c3O)C[C@@H]([C@@H]1O)N2C)OCO4` [Trabectedin] was tested, and the relative viability (2 pM) was 1.096 ± 0.0079, the relative viability (5 pM) was 1.09 ± 0.014 and the relative viability (15 pM) was 1.07 ± 0.029. It also gave a relative viability (50 pM) of 1.01 ± 0.046, a relative viability (0.00014 µM) of 0.683 ± 0.012 and a relative viability (0.00041 µM) of 0.389 ± 0.1. For the same compound, the relative viability (0.0012 µM) was 0.239 ± 0.087, the relative viability (0.0037 µM) was 0.183 ± 0.014 and the relative viability (0.011 µM) was 0.203 ± 0.018. It also gave a relative viability (200 fM) of 1.07 ± 0.024 and a relative viability (600 fM) of 1.08 ± 0.032.
`Nc1cc(C(F)(F)F)c(-c2cc(N3CCOCC3)nc(N3CCOCC3)n2)cn1` [Buparlisib] was tested, and the relative viability (0.00017 µM) was 1.01 ± 0.043, the relative viability (0.00051 µM) was 1 ± 0.053 and the relative viability (0.00152 µM) was 0.999 ± 0.027. It also gave a relative viability (0.00457 µM) of 1.01 ± 0.032, a relative viability (0.01372 µM) of 0.997 ± 0.035 and a relative viability (0.04115 µM) of 0.983 ± 0.055. The relative viability (0.1235 µM) was 0.875 ± 0.058, the relative viability (0.3704 µM) was 0.663 ± 0.018 and the relative viability (1.111 µM) was 0.316 ± 0.0056. For the same compound, the relative viability (3.333 µM) was 0.189 ± 0.0041 and the relative viability (10 µM) was 0.1818 ± 0.0013.
With `CC(C)NC(=O)C1CCC(n2c(NC(=O)c3ccc(F)cc3)nc3ccc(CN4CCC(C(C)(C)O)CC4)cc32)CC1` (centres undefined) [Belizatinib] the relative viability (0.00017 µM) was 1.05 ± 0.04, the relative viability (0.00051 µM) was 1.07 ± 0.059 and the relative viability (0.00152 µM) was 1.05 ± 0.064. For the same compound, the relative viability (0.00457 µM) was 1.04 ± 0.018, the relative viability (0.01372 µM) was 1.08 ± 0.022 and the relative viability (0.04115 µM) was 1.06 ± 0.046. The relative viability (0.1235 µM) was 1 ± 0.017, the relative viability (0.3704 µM) was 0.926 ± 0.014 and the relative viability (1.111 µM) was 0.658 ± 0.012. The relative viability (3.333 µM) was 0.359 ± 0.012 and the relative viability (10 µM) was 0.164 ± 0.0087.
For `N#CC[C@H](C1CCCC1)n1cc(-c2ncnc3[nH]ccc23)cn1` [Ruxolitinib], the relative viability (0.00017 µM) was 1.03 ± 0.03, the relative viability (0.00051 µM) was 1.05 ± 0.026 and the relative viability (0.00152 µM) was 1.002 ± 0.01. The relative viability (0.00457 µM) was 1.006 ± 0.0095, the relative viability (0.01372 µM) was 1.02 ± 0.014 and the relative viability (0.04115 µM) was 1.03 ± 0.024. The relative viability (0.1235 µM) was 0.987 ± 0.014, the relative viability (0.3704 µM) was 0.985 ± 0.025 and the relative viability (1.111 µM) was 0.969 ± 0.015. For the same compound, the relative viability (3.333 µM) was 1 ± 0.03 and the relative viability (10 µM) was 0.8995 ± 0.0059.
